Where “and” joins values, the source holds several entries; their conditions need not be identical. Equal values may be shown once.
Test system: HepG2 (Hepatocarcinoma)
Test: not given
Conditions: MRC-5 vs HepG2

SMILES	Selectivity index SI = IC50(normal cell)/IC50(cancer cell line)
COc1cccc2c1C(=O)c1c(O)c3c(c(O)c1C2=O)C[C@@](O)(C(=O)CO)C[C@@H]3O[C@H]1C[C@H](N)[C@H](O)[C@H](C)O1 [doxorubicin, reference compound]	5.17
Cc1cc(C#N)cc(C)c1Oc1cc(Oc2c(C)cc(C#N)cc2C)c2cnccc2n1 [Compound 13b, 2,4-di-(2ˊ,6ˊ-dimethyl-4ˊ-cyanophenoxy)−1,6-naphthyridine]	> 1.59

Test system: MOLT-3 (Acute lymphoblastic leukemia)
Test: not given
Conditions: MRC-5 vs MOLT-3

SMILES	Selectivity index SI = IC50(normal cell)/IC50(cancer cell line)
COc1cccc2c1C(=O)c1c(O)c3c(c(O)c1C2=O)C[C@@](O)(C(=O)CO)C[C@@H]3O[C@H]1C[C@H](N)[C@H](O)[C@H](C)O1 [doxorubicin, reference compound]	155
Cc1cc(C#N)cc(C)c1Oc1cc(Oc2c(C)cc(C#N)cc2C)c2cnccc2n1 [Compound 13b, 2,4-di-(2ˊ,6ˊ-dimethyl-4ˊ-cyanophenoxy)−1,6-naphthyridine]	> 10.52

Test system: HuCCA-1 (Cholangiocarcinoma)
Test: not given
Conditions: MRC-5 vs HuCCA-1

SMILES	Selectivity index SI = IC50(normal cell)/IC50(cancer cell line)
COc1cccc2c1C(=O)c1c(O)c3c(c(O)c1C2=O)C[C@@](O)(C(=O)CO)C[C@@H]3O[C@H]1C[C@H](N)[C@H](O)[C@H](C)O1 [doxorubicin, reference compound]	3.44
Cc1cc(C#N)cc(C)c1Oc1cc(Oc2c(C)cc(C#N)cc2C)c2cnccc2n1 [Compound 13b, 2,4-di-(2ˊ,6ˊ-dimethyl-4ˊ-cyanophenoxy)−1,6-naphthyridine]	> 3.67

Test system: A549 (Lung carcinoma)
Test: not given
Conditions: MRC-5 vs A549

SMILES	Selectivity index SI = IC50(normal cell)/IC50(cancer cell line)
COc1cccc2c1C(=O)c1c(O)c3c(c(O)c1C2=O)C[C@@](O)(C(=O)CO)C[C@@H]3O[C@H]1C[C@H](N)[C@H](O)[C@H](C)O1 [doxorubicin, reference compound]	5.17
Cc1cc(C#N)cc(C)c1Oc1cc(Oc2c(C)cc(C#N)cc2C)c2cnccc2n1 [Compound 13b, 2,4-di-(2ˊ,6ˊ-dimethyl-4ˊ-cyanophenoxy)−1,6-naphthyridine]	> 3.29

Test system: MRC-5 (normal embryonic lung cell)
Test: not given
Conditions: MRC-5, at maximum tested concentration of 50 µg/mL

SMILES	Percentage cytotoxicity
Cc1cc(C#N)cc(C)c1Oc1cc(Oc2c(C)cc(C#N)cc2C)c2cnccc2n1 [Compound 13b, 2,4-di-(2ˊ,6ˊ-dimethyl-4ˊ-cyanophenoxy)−1,6-naphthyridine]	43%

Same assay, conditions: MRC-5, up to 50 µg/mL

SMILES	toxicity toward normal embryonic lung cells (MRC-5), in words
Cc1cc(C#N)cc(C)c1Oc1cc(Oc2c(C)cc(C#N)cc2C)c2cnccc2n1 [Compound 13b, 2,4-di-(2ˊ,6ˊ-dimethyl-4ˊ-cyanophenoxy)−1,6-naphthyridine]	non-toxic

Test system: MDA-MB-231 (Hormone-independent breast cancer)
Test: not given
Conditions: MRC-5 vs MDA-MB-231

SMILES	Selectivity index SI = IC50(normal cell)/IC50(cancer cell line)
COc1cccc2c1C(=O)c1c(O)c3c(c(O)c1C2=O)C[C@@](O)(C(=O)CO)C[C@@H]3O[C@H]1C[C@H](N)[C@H](O)[C@H](C)O1 [doxorubicin, reference compound]	1.24
Cc1cc(C#N)cc(C)c1Oc1cc(Oc2c(C)cc(C#N)cc2C)c2cnccc2n1 [Compound 13b, 2,4-di-(2ˊ,6ˊ-dimethyl-4ˊ-cyanophenoxy)−1,6-naphthyridine]	> 1.62

Molecular target: HIV-1 RT (Human immunodeficiency virus type 1 group M subtype B, UniProt P04585)
Test: not given
Conditions: previous study; cited from earlier work

SMILES	percentage inhibition against HIV-1 RT
N#Cc1ccc(Nc2cc(Oc3ccc(C#N)cc3)c3ccccc3n2)cc1 [4-(4’-cyanophenoxy)−2-(4’’-cyanophenyl)-aminoquinoline]	39.71%

Same assay, conditions: quinolines of the previous publication; cited from earlier work

SMILES	percentage inhibition against HIV-1 RT
Cc1cc(C#N)cc(C)c1Oc1cc(Nc2ccc(C#N)cn2)nc2ccccc12 [4-(2’,6’-dimethyl-4’-cyanophenoxy)−2-(5’’-cyanopyridin-2’’ylamino)quinoline]	45% and 45.1%

Same assay, conditions: read-out: IC50 against HIV-1 RT; quinolines of the previous publication; cited from earlier work

SMILES	IC50
Cc1cc(C#N)cc(C)c1Oc1cc(Nc2ccc(C#N)cn2)nc2ccccc12 [4-(2’,6’-dimethyl-4’-cyanophenoxy)−2-(5’’-cyanopyridin-2’’ylamino)quinoline]	1.22 µM

Test system: S102 (Thai liver cancer)
Test: not given
Conditions: MRC-5 vs S102

SMILES	Selectivity index SI = IC50(normal cell)/IC50(cancer cell line)
COc1cccc2c1C(=O)c1c(O)c3c(c(O)c1C2=O)C[C@@](O)(C(=O)CO)C[C@@H]3O[C@H]1C[C@H](N)[C@H](O)[C@H](C)O1 [doxorubicin, reference compound]	1.41
Cc1cc(C#N)cc(C)c1Oc1cc(Oc2c(C)cc(C#N)cc2C)c2cnccc2n1 [Compound 13b, 2,4-di-(2ˊ,6ˊ-dimethyl-4ˊ-cyanophenoxy)−1,6-naphthyridine]	> 1.15

Test system: HeLa (Cervical carcinoma)
Test: not given
Conditions: MRC-5 vs HeLa

SMILES	Selectivity index SI = IC50(normal cell)/IC50(cancer cell line)
COc1cccc2c1C(=O)c1c(O)c3c(c(O)c1C2=O)C[C@@](O)(C(=O)CO)C[C@@H]3O[C@H]1C[C@H](N)[C@H](O)[C@H](C)O1 [doxorubicin, reference compound]	7.75
Cc1cc(C#N)cc(C)c1Oc1cc(Oc2c(C)cc(C#N)cc2C)c2cnccc2n1 [Compound 13b, 2,4-di-(2ˊ,6ˊ-dimethyl-4ˊ-cyanophenoxy)−1,6-naphthyridine]	> 4.87

Test system: T47-D (Hormone-dependent breast cancer)
Test: not given
Conditions: MRC-5 vs T47-D

SMILES	Selectivity index SI = IC50(normal cell)/IC50(cancer cell line)
COc1cccc2c1C(=O)c1c(O)c3c(c(O)c1C2=O)C[C@@](O)(C(=O)CO)C[C@@H]3O[C@H]1C[C@H](N)[C@H](O)[C@H](C)O1 [doxorubicin, reference compound]	2.58
Cc1cc(C#N)cc(C)c1Oc1cc(Oc2c(C)cc(C#N)cc2C)c2cnccc2n1 [Compound 13b, 2,4-di-(2ˊ,6ˊ-dimethyl-4ˊ-cyanophenoxy)−1,6-naphthyridine]	> 3.49

Test system: H69AR (Lung cancer, multidrug resistance)
Test: not given
Conditions: MRC-5 vs H69AR

SMILES	Selectivity index SI = IC50(normal cell)/IC50(cancer cell line)
COc1cccc2c1C(=O)c1c(O)c3c(c(O)c1C2=O)C[C@@](O)(C(=O)CO)C[C@@H]3O[C@H]1C[C@H](N)[C@H](O)[C@H](C)O1 [doxorubicin, reference compound]	0.09
Cc1cc(C#N)cc(C)c1Oc1cc(Oc2c(C)cc(C#N)cc2C)c2cnccc2n1 [Compound 13b, 2,4-di-(2ˊ,6ˊ-dimethyl-4ˊ-cyanophenoxy)−1,6-naphthyridine]	> 1.56

Test system: HL-60 (promyeloblast)
Test: not given
Conditions: MRC-5 vs HL-60

SMILES	Selectivity index SI = IC50(normal cell)/IC50(cancer cell line)
COc1cccc2c1C(=O)c1c(O)c3c(c(O)c1C2=O)C[C@@](O)(C(=O)CO)C[C@@H]3O[C@H]1C[C@H](N)[C@H](O)[C@H](C)O1 [doxorubicin, reference compound]	31
Cc1cc(C#N)cc(C)c1Oc1cc(Oc2c(C)cc(C#N)cc2C)c2cnccc2n1 [Compound 13b, 2,4-di-(2ˊ,6ˊ-dimethyl-4ˊ-cyanophenoxy)−1,6-naphthyridine]	> 1.46

Test system: HepG2 (Hepatocarcinoma)
Test: cells
Conditions: Homo sapiens, HepG2, 48 h, read-out: IC50 cytotoxic activity

SMILES	IC50
COc1cccc2c1C(=O)c1c(O)c3c(c(O)c1C2=O)C[C@@](O)(C(=O)CO)C[C@@H]3O[C@H]1C[C@H](N)[C@H](O)[C@H](C)O1 [doxorubicin, reference compound]	0.6 ± 0.02 µM
Cc1cc(C#N)cc(C)c1Oc1cc(Oc2c(C)cc(C#N)cc2C)c2cnccc2n1 [Compound 13b, 2,4-di-(2ˊ,6ˊ-dimethyl-4ˊ-cyanophenoxy)−1,6-naphthyridine]	74.7 ± 13.3 µM

Test system: MOLT-3 (Acute lymphoblastic leukemia)
Test: cells
Conditions: Homo sapiens, MOLT-3, 48 h, read-out: IC50 cytotoxic activity

SMILES	IC50
COc1cccc2c1C(=O)c1c(O)c3c(c(O)c1C2=O)C[C@@](O)(C(=O)CO)C[C@@H]3O[C@H]1C[C@H](N)[C@H](O)[C@H](C)O1 [doxorubicin, reference compound]	0.02 µM
Cc1cc(C#N)cc(C)c1Oc1cc(Oc2c(C)cc(C#N)cc2C)c2cnccc2n1 [Compound 13b, 2,4-di-(2ˊ,6ˊ-dimethyl-4ˊ-cyanophenoxy)−1,6-naphthyridine]	11.3 ± 2.2 µM
COc1cc([C@@H]2c3cc4c(cc3[C@@H](O[C@@H]3O[C@@H]5CO[C@@H](C)O[C@H]5[C@H](O)[C@H]3O)[C@H]3COC(=O)[C@H]23)OCO4)cc(OC)c1O [etoposide, reference compound]	0.03 ± 0.02 µM

Test system: HuCCA-1 (Cholangiocarcinoma)
Test: cells
Conditions: Homo sapiens, HuCC-A1, 48 h, read-out: IC50 cytotoxic activity

SMILES	IC50
COc1cccc2c1C(=O)c1c(O)c3c(c(O)c1C2=O)C[C@@](O)(C(=O)CO)C[C@@H]3O[C@H]1C[C@H](N)[C@H](O)[C@H](C)O1 [doxorubicin, reference compound]	0.9 ± 0.1 µM
Cc1cc(C#N)cc(C)c1Oc1cc(Oc2c(C)cc(C#N)cc2C)c2cnccc2n1 [Compound 13b, 2,4-di-(2ˊ,6ˊ-dimethyl-4ˊ-cyanophenoxy)−1,6-naphthyridine]	32.4 ± 2.7 µM

Test system: A549 (Lung carcinoma)
Test: cells
Conditions: Homo sapiens, A549, 48 h, read-out: IC50 cytotoxic activity

SMILES	IC50
COc1cccc2c1C(=O)c1c(O)c3c(c(O)c1C2=O)C[C@@](O)(C(=O)CO)C[C@@H]3O[C@H]1C[C@H](N)[C@H](O)[C@H](C)O1 [doxorubicin, reference compound]	0.6 ± 0.1 µM
Cc1cc(C#N)cc(C)c1Oc1cc(Oc2c(C)cc(C#N)cc2C)c2cnccc2n1 [Compound 13b, 2,4-di-(2ˊ,6ˊ-dimethyl-4ˊ-cyanophenoxy)−1,6-naphthyridine]	36.1 ± 0.6 µM

Test system: MDA-MB-231 (Hormone-independent breast cancer)
Test: cells
Conditions: Homo sapiens, MDA-MB-231, 48 h, read-out: IC50 cytotoxic activity

SMILES	IC50
COc1cccc2c1C(=O)c1c(O)c3c(c(O)c1C2=O)C[C@@](O)(C(=O)CO)C[C@@H]3O[C@H]1C[C@H](N)[C@H](O)[C@H](C)O1 [doxorubicin, reference compound]	2.5 ± 0.1 µM
Cc1cc(C#N)cc(C)c1Oc1cc(Oc2c(C)cc(C#N)cc2C)c2cnccc2n1 [Compound 13b, 2,4-di-(2ˊ,6ˊ-dimethyl-4ˊ-cyanophenoxy)−1,6-naphthyridine]	73.2 ± 8.1 µM

Test system: S102 (Thai liver cancer)
Test: cells
Conditions: Homo sapiens, 48 h, read-out: IC50 cytotoxic activity

SMILES	IC50
COc1cccc2c1C(=O)c1c(O)c3c(c(O)c1C2=O)C[C@@](O)(C(=O)CO)C[C@@H]3O[C@H]1C[C@H](N)[C@H](O)[C@H](C)O1 [doxorubicin, reference compound]	2.2 µM
Cc1cc(C#N)cc(C)c1Oc1cc(Oc2c(C)cc(C#N)cc2C)c2cnccc2n1 [Compound 13b, 2,4-di-(2ˊ,6ˊ-dimethyl-4ˊ-cyanophenoxy)−1,6-naphthyridine]	103 ± 4.4 µM

Test system: HeLa (Cervical carcinoma)
Test: cells
Conditions: Homo sapiens, 48 h, read-out: IC50 cytotoxic activity

SMILES	IC50
COc1cccc2c1C(=O)c1c(O)c3c(c(O)c1C2=O)C[C@@](O)(C(=O)CO)C[C@@H]3O[C@H]1C[C@H](N)[C@H](O)[C@H](C)O1 [doxorubicin, reference compound]	0.4 µM
Cc1cc(C#N)cc(C)c1Oc1cc(Oc2c(C)cc(C#N)cc2C)c2cnccc2n1 [Compound 13b, 2,4-di-(2ˊ,6ˊ-dimethyl-4ˊ-cyanophenoxy)−1,6-naphthyridine]	24.4 ± 2.5 µM

Test system: T47-D (Hormone-dependent breast cancer)
Test: cells
Conditions: Homo sapiens, T47D, 48 h, read-out: IC50 cytotoxic activity

SMILES	IC50
COc1cccc2c1C(=O)c1c(O)c3c(c(O)c1C2=O)C[C@@](O)(C(=O)CO)C[C@@H]3O[C@H]1C[C@H](N)[C@H](O)[C@H](C)O1 [doxorubicin, reference compound]	1.2 µM
Cc1cc(C#N)cc(C)c1Oc1cc(Oc2c(C)cc(C#N)cc2C)c2cnccc2n1 [Compound 13b, 2,4-di-(2ˊ,6ˊ-dimethyl-4ˊ-cyanophenoxy)−1,6-naphthyridine]	34.1 ± 2.2 µM

Test system: H69AR (Lung cancer, multidrug resistance)
Test: cells
Conditions: Homo sapiens, 48 h, read-out: IC50 cytotoxic activity

SMILES	IC50
Cc1cc(C#N)cc(C)c1Oc1cc(Oc2c(C)cc(C#N)cc2C)c2cnccc2n1 [Compound 13b, 2,4-di-(2ˊ,6ˊ-dimethyl-4ˊ-cyanophenoxy)−1,6-naphthyridine]	76 ± 6.54 µM

Test system: HL-60 (promyeloblast)
Test: cells
Conditions: Homo sapiens, HL-60, 48 h, read-out: IC50 cytotoxic activity

SMILES	IC50
COc1cccc2c1C(=O)c1c(O)c3c(c(O)c1C2=O)C[C@@](O)(C(=O)CO)C[C@@H]3O[C@H]1C[C@H](N)[C@H](O)[C@H](C)O1 [doxorubicin, reference compound]	0.1 µM
Cc1cc(C#N)cc(C)c1Oc1cc(Oc2c(C)cc(C#N)cc2C)c2cnccc2n1 [Compound 13b, 2,4-di-(2ˊ,6ˊ-dimethyl-4ˊ-cyanophenoxy)−1,6-naphthyridine]	81.5 ± 19.5 µM
COc1cc([C@@H]2c3cc4c(cc3[C@@H](O[C@@H]3O[C@@H]5CO[C@@H](C)O[C@H]5[C@H](O)[C@H]3O)[C@H]3COC(=O)[C@H]23)OCO4)cc(OC)c1O [etoposide, reference compound]	0.8 ± 0.1 µM

Test system: not listed separately
Test: in vitro
Conditions: human, MRC-5 cells (normal embryonic lung cells)

SMILES	IC50 at 48 h
O=C1Nc2ccc(Cl)cc2[C@@](C#CC2CC2)(C(F)(F)F)O1 [EFV, efavirenz, reference compound]	95.6 ± 6 µM
COc1cccc2c1C(=O)c1c(O)c3c(c(O)c1C2=O)C[C@@](O)(C(=O)CO)C[C@@H]3O[C@H]1C[C@H](N)[C@H](O)[C@H](C)O1 [doxorubicin, reference compound]	3.1 ± 0.5 µM
Cc1cc(C#N)cc(C)c1Oc1cc(Oc2c(C)cc(C#N)cc2C)c2cnccc2n1 [Compound 13b, 2,4-di-(2ˊ,6ˊ-dimethyl-4ˊ-cyanophenoxy)−1,6-naphthyridine]	> 119 µM
